# From patent publication US7078045B2, “Pharmaceutical composition for treatment and prevention of liver fibrosis and cirrhosis” (Sang-Geon Kim, priority 2000, dated 2006)
# Like-named read-outs stand apart in the source and are kept apart here. Marks after values point to notes of the source that are not given here.
# Columns and labels:
# NF-κB activation = assay: LPS-inducible NF-κB activation in rat liver (EMSA); assay type: in vivo; settings: 2 h prior to LPS
# Procedure: It is known that NF-κB activation is associated with inflammatory responses. To compare the NF-κB activity in the liver tissue when DDB is administered with that when DDB is not administered, the following test was conducted. SD male rats with weight of about 150 g were used. For one group 7 rats were used. For the control group (vehicle administered) and test group (20 to 100 mg/kg/day of DDB administered), the NF-κB activity in accordance with the treatment of endotoxin (lipopolysaccharide, LPS) was measured by using Electrophoresis Mobility Shift Assay (EMSA).
# [1] = test system: NF-κB activation in Raw264.7 cells; assay: LPS-induced NF-κB DNA binding activity in Raw264.7 cells; assay type: cell-based
# Procedure: Stimulation of Raw264.7 cells with […] of LPS caused an increase in DNA binding activity of NF-κB after 30 min to 1 h. DDB at the concentrations of 0.1, 0.3 and 1 mM inhibited NF-κB activity in a concentration-dependent manner.
# I-κBα degradation = I-κBα degradation after LPS in rats; assay type: in vivo, rat; settings: LPS 1 μg/kg + DDB 100 mg/kg, 2 h prior to LPS
# Procedure: (§1) Translocation of NF-κB to the nucleus was preceded by phosphorylation and proteolytic degradation of the I-κBα subunit. This test was conducted in order to ascertain whether the effect of DDB on NF-κB activation is associated with the inhibition of I-κBα degradation. The level of I-κBα protein was reduced 30 min after the treatment of rats with LPS (1 μg/kg). In contrast, treatment with DDB 2 h prior to LPS treatment attenuated the decrease in I-κBα protein by LPS. Also with RAW264.7 cells, DDB inhibited the degradation of I-κBα protein in a concentration-dependent manner at the concentrations of 0.3 to 1 mM.
# [2] = test system: I-κBα degradation in RAW264.7 cells; assay: I-κBα degradation after LPS in RAW264.7 cells; assay type: cell-based
# Procedure: as §1
# TNF-α production = assay: Plasma TNF-α after LPS in rats (ELISA); assay type: in vivo, rat; settings: for plasma TNF-α level: LPS 1 μg/kg i.v., 2 h after administration; for % inhibition of LPS-induced plasma TNF-α elevation: Table 6, TNF-α production in plasma
# Procedure: (§2) TNF-α is the principal mediator of the responses to LPS and is involved in inflammatory processes. It was determined by ELISA whether the amount of TNF-α released into blood decreases when NF-κB activity was inhibited by DDB. A single dose of LPS treatment (1 μg/kg, i.v.) increased the TNF-α level from 35 to 5160 pg per ml of plasma 2 h after administration. DDB treatment at a dose of 20, 50 or 100 mg/kg prevented the elevation of plasma TNF-α level by LPS, resulting in 1350, 1230 or 690 pg per ml of plasma, respectively. With the RAW264.7 cells, DDB decreased the production of TNF-α by LPS.
# [3] = test system: TNF-α production in RAW264.7 cells; assay: TNF-α production by LPS in RAW264.7 cells; assay type: cell-based; settings: Table 6, TNF-α production; LPS + DDB 1.0 mg/kg as printed
# Procedure: as §2
# TGF-β mRNA expression = assay: Effect of oltipraz/DDB combinations on TGF-β mRNA expression (quantitative RT-PCR) in DMN-administered animals; assay type: in vivo
# Description: As addressed above, TGF-β is a cytokine that causes hepatic fibrosis and is known to be associated with hepatic fibrosis development.
# However, as the DDB to oltipraz ratio increases, the inhibition of TGF-β expression is progressively lost. In the animal group administered with DDB alone, TGF-β expression was not inhibited. Therefore, inhibition of TGF-β expression is considered to be caused by oltipraz. On this ground, the best combination ratio of oltipraz to DDB is 5:1 (Table 9).
# [4] = test system: TGF-β expression in RAW264.7 macrophage cells; assay: Inhibition of TGF-β expression in RAW264.7 macrophage cells; assay type: cell-based
# [5] = test system: DMN induced hepatic fibrosis; assay: animal or person
# Description: Plasma gamma-glutamyl transpeptidase (gamma-GT) activity and bilirubin content are used as indicators of hepatic functionality.
# Each value is represented by the average ± standard deviation. The number of animals used ranged from 8 to 16. The significance of each group was indicated by the Newman-Keuls test of multiple analysis. The significance markers are: *=p<0.05 compared to control, #=p<0.05 compared to DMN treated group.
# The anti-fibrotic activity of the oltipraz/DDB combination was evaluated by changing the component ratio of the combination. To evaluate the effect of the combination according to the component ratio, the dosage schedule of DMN was partially modified. That is, while DMN was administered to a rat 12 times totally in dosages of 10 μl/kg per administration over a 4-week period, 3 times a week in the test examples 1 and 2, to evaluate the effect of the combination according to the component ratio, an animal model with reduced liver damage was used wherein DMN was administered to a rat 9 times totally in dosages of 10 μl/kg per administration over a 3-week period, 3 times a week, and then not administered in the remaining one week in the test example.
# [6] = test system: DMN induced hepatic fibrosis; settings: 3 times a week; for Fibrosis Values: score 0-4
# Procedure: The degree of fibrosis was determined by evaluating the fibrosis and Knodell scores, which show degrees of liver damage and fibrosis.
# Each value is represented by the average ± standard deviation. The number of animals used was 8 to 16. The significance of each group is determined by the Newman-Keuls test of multiple analysis. *p<0.05, **p<0.01. Degree of fibrosis 0=Normal, 1=Presence of weak fibrous tissue, 2=Moderate presence of fibrous tissue, 3=Obvious presence of fibrous tissue, 4=Evidence of severe fibrosis. Sum of values from periportal bridging (Greatest=10), intralobular cell loss (Greatest=4), portal inflammation (Greatest=4), and fibrosis (Greatest=4) yields the Knodell score.
# TGF-β 1 mRNA expression = settings: liver tissue; 100 mg/kg oltipraz given 18 hours after DMN, observed 24 hours later
# [7] = plasma, DMN 4 weeks + Oltipraz 50 mg/kg
# [8] = DMN 4 weeks + Oltipraz 5 mg/kg oral
# [9] = DMN 4 weeks + Oltipraz 15 mg/kg oral
# [10] = DMN 4 weeks + Oltipraz 50 mg/kg oral
compound,measurement,setting,value
"COC(=O)c1cc(OC)c2c(c1-c1c(C(=O)OC)cc(OC)c3c1OCO3)OCO2 [DDB, dimethyl-4,4′-dimethoxy-5,6,5′,6′-dimethylene dioxybiphenyl-2,2′-dicarboxylate]",% inhibition of NF-κB activation,NF-κB activation; LPS 1 μg/kg + DDB 20 mg/kg,42%
same,% inhibition of NF-κB activation,NF-κB activation; LPS 1 μg/kg + DDB 50 mg/kg,63%
same,% inhibition of NF-κB activation,NF-κB activation; LPS 1 μg/kg + DDB 100 mg/kg,73%
same,% inhibition of NF-κB activation,[1]; LPS 1 μg/ml + DDB 0.1 mM,33%
same,% inhibition of NF-κB activation,[1]; LPS 1 μg/ml + DDB 0.3 mM,35%
same,% inhibition of NF-κB activation,[1]; LPS 1 μg/ml + DDB 1.0 mM,65%
same,% inhibition of I-κBα degradation,I-κBα degradation,67%
same,% inhibition of I-κBα degradation,[2]; LPS 1 μg/ml + DDB 0.1 mM,22%
same,% inhibition of I-κBα degradation,[2]; LPS 1 μg/ml + DDB 0.3 mM,34%
same,% inhibition of I-κBα degradation,[2]; LPS 1 μg/ml + DDB 1.0 mM,65%
same,plasma TNF-α level,TNF-α production; DDB 20 mg/kg,1350 pg per ml of plasma
same,plasma TNF-α level,TNF-α production; DDB 50 mg/kg,1230 pg per ml of plasma
same,plasma TNF-α level,TNF-α production; DDB 100 mg/kg,690 pg per ml of plasma
same,% inhibition of LPS-induced plasma TNF-α elevation,TNF-α production; LPS 1 μg/kg + DDB 20 mg/kg,74%
same,% inhibition of LPS-induced plasma TNF-α elevation,TNF-α production; LPS 1 μg/kg + DDB 50 mg/kg,76%
same,% inhibition of LPS-induced plasma TNF-α elevation,TNF-α production; LPS 1 μg/kg + DDB 100 mg/kg,87%
same,% inhibition of TNF-α production,[3],65%
same,% Inhibition of TGF-β mRNA expression,TGF-β mRNA expression; DMN + DDB 30 mg/kg,0%
same,TGF-β expression (result in words),TGF-β mRNA expression; DMN + DDB alone,not inhibited
O=C(O)CN(CCOCCOCCN(CC(=O)O)CC(=O)O)CC(=O)O [EGTA],TGF-β Inhibition Percentage (%),[4]; EGTA 1 mM,80%
"O=c1c(-c2ccc(O)cc2)coc2cc(O)cc(O)c12 [Genistein, genistein]",inhibition at 100 µM,"[4]; Mus musculus, Genistein 100 μM, read-out: TGF-β Inhibition Percentage (%)",80%
"Cc1c(-c2cnccn2)ssc1=S [Oltipraz, 5-(2-pyrazinyl)-4-methyl-1,2-dithiol-3-thione]",inhibition percentage of ALT increase by DMN,[5]; 50 mg/kg of oltipraz administered alone (stated in Test Example 7),40%
same,inhibition at 50 mg/kg,"[5]; Rattus norvegicus, read-out: inhibition of plasma bilirubin increase",65%
same,ALT,[5]; [7],116 ± 4^#
same,AST,[5]; [7],246 ± 32^#
same,Bilirubin,[5]; [7],0.3 ± 0.03^#
same,gamma-GT,[5]; [7],2.6 ± 0.5^#
same,Knodell Values,[6]; [8],11.1 ± 1.7*
same,Fibrosis Values,[6]; [8],3.1 ± 0.4*
same,Knodell Values,[6]; [9],12.1 ± 1.9*
same,Fibrosis Values,[6]; [9],2.9 ± 0.8*
same,Knodell Values,[6]; [10],8.0 ± 1.6**
same,Fibrosis Values,[6]; [10],2.5 ± 0.9**
same,inhibition at 30 µM,"[4]; Mus musculus, Oltipraz 30 μM, read-out: TGF-β Inhibition Percentage (%)",30%
same,inhibition at 100 µM,"[4]; Mus musculus, Oltipraz 100 μM, read-out: TGF-β Inhibition Percentage (%)",60%
same,TGF-β expression (result in words),TGF-β mRNA expression; DMN + 30 mg/kg of oltipraz,completely inhibited
same,% Inhibition of TGF-β mRNA expression,TGF-β mRNA expression; DMN + oltipraz 30 mg/kg,65%
same,DMN induced expression of TGF-β 1 mRNA,TGF-β 1 mRNA expression,completely inhibited
